Calls of active or inactive are those of the source. The rule behind the calls is not given here.
Key:
[1] = biological target: T1, Muscarinic acetylcholine receptor M1 (Homo sapiens, UniProt P11229); test: Displacement of [3H]N-methylscopolamine from human muscarinic M1 receptor expressed in human HEK293T cell membranes by radioligand competition binding based analysis; design: species or system Cell membrane
T1 sequence (P11229 whole entry): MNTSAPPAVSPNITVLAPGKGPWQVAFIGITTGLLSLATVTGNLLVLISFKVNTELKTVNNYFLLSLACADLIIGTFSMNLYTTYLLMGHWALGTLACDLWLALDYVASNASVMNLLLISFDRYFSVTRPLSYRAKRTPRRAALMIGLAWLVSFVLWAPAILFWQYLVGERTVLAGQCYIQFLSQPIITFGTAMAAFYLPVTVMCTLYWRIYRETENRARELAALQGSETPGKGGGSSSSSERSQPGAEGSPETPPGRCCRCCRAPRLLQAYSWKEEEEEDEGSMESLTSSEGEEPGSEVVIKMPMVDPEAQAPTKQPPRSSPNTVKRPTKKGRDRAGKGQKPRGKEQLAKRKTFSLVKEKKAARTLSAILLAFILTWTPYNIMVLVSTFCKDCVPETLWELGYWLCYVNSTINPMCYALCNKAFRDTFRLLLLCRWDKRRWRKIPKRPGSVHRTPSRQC

[2] = biological target: T2, Muscarinic acetylcholine receptor M2 (Homo sapiens, UniProt P08172); test: Displacement of [3H]N-methylscopolamine from human muscarinic M2 receptor expressed in human HEK293T cell membranes by radioligand competition binding based analysis; design: species or system Cell membrane
T2 sequence (P08172 whole entry): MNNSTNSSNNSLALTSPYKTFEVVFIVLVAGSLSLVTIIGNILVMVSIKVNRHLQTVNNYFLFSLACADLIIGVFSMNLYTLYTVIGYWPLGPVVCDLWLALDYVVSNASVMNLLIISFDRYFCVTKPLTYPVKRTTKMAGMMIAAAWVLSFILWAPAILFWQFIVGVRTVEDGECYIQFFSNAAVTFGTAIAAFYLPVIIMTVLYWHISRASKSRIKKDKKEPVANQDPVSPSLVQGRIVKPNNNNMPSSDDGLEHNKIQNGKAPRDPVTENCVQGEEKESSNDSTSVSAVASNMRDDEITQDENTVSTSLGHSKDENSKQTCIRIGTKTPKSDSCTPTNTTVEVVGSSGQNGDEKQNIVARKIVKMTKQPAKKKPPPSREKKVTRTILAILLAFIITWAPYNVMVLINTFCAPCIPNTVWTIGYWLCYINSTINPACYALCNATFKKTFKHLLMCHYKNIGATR

[3] = biological target: T3, Muscarinic acetylcholine receptor M3 (Homo sapiens, UniProt P20309); test: Displacement of [3H]N-methylscopolamine from human muscarinic M3 receptor expressed in human HEK293T cell membranes by radioligand competition binding based analysis; design: species or system Cell membrane
Target sequence in this assay (P20309 whole entry): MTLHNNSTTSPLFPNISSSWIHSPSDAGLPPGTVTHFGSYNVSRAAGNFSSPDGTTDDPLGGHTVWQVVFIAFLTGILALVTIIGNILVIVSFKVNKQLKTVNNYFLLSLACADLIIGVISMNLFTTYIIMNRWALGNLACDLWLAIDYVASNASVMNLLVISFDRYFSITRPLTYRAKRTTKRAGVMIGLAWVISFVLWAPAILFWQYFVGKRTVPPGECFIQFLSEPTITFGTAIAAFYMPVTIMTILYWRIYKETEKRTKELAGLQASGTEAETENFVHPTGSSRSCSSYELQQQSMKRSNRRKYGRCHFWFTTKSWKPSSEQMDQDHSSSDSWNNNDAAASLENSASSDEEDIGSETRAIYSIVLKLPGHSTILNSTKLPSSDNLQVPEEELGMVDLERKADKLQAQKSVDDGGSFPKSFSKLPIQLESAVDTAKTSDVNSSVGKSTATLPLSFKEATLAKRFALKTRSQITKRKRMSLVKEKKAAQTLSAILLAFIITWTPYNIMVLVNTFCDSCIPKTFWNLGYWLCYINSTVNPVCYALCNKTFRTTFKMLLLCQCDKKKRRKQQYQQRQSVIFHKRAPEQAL

[4] = biological target: T4, Muscarinic acetylcholine receptor M4 (Homo sapiens, UniProt P08173); test: Displacement of [3H]N-methylscopolamine from human muscarinic M4 receptor expressed in human HEK293T cell membranes by radioligand competition binding based analysis; design: species or system Cell membrane
T4 sequence (P08173 whole entry): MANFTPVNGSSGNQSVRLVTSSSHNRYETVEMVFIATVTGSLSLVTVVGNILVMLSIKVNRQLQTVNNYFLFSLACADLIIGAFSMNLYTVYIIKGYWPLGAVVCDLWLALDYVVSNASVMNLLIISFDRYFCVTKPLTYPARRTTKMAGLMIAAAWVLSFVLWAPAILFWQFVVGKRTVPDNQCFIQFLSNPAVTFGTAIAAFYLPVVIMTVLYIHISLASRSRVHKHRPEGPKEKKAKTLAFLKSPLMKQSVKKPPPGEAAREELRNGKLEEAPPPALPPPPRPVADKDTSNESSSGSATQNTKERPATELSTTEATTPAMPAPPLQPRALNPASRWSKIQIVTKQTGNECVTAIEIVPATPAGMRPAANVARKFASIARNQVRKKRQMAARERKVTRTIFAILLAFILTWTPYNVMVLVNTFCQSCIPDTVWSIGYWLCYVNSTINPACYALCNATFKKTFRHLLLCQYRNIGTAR

[5] = biological target: T5, Muscarinic acetylcholine receptor M5 (Homo sapiens, UniProt P08912); test: Displacement of [3H]N-methylscopolamine from human muscarinic M5 receptor expressed in human HEK293T cell membranes by radioligand competition binding based analysis; design: species or system Cell membrane
T5 sequence (P08912 whole entry): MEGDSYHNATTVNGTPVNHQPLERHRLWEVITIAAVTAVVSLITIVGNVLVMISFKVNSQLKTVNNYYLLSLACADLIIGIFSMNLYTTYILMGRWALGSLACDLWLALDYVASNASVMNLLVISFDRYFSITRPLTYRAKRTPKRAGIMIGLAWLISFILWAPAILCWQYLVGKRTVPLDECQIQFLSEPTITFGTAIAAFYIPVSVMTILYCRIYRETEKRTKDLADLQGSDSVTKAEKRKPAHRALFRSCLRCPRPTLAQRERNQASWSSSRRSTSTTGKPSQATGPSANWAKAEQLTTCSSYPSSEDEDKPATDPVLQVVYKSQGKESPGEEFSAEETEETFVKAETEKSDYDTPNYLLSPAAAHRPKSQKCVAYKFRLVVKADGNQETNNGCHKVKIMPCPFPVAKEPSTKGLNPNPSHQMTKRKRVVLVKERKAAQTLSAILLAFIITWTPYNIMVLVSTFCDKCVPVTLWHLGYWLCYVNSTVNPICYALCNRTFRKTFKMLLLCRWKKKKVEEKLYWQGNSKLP

Homo sapiens [6] = organism: Homo sapiens; test: Selectivity ratio, Ki for displacement of [3H]N-methylscopolamine from human muscarinic M4 receptor expressed in human HEK293T cell membranes to Ki for displacement of [3H]N-methylscopolamine from human muscarinic M3 receptor expressed in human HEK293T cell membranes
Homo sapiens [7] = organism: Homo sapiens; test: Selectivity ratio, Ki for displacement of [3H]N-methylscopolamine from human muscarinic M5 receptor expressed in human HEK293T cell membranes to Ki for displacement of [3H]N-methylscopolamine from human muscarinic M3 receptor expressed in human HEK293T cell membranes
[8] = biological target: T3, Muscarinic acetylcholine receptor M3; test: Binding affinity to human muscarinic M3 receptor expressed in human HEK293T cells assessed as inhibition of carbachol-induced G-protein signaling by measuring inositol accumulation preincubated for 30 mins followed by carbachol stimulation and measured after 90 mins by HTRF assay; type: cell-based
Target sequence in this assay (P20309 whole entry): as the sequence (P20309 whole entry) above

[9] = biological target: T3, Muscarinic acetylcholine receptor M3; test: Binding affinity to human muscarinic M3 receptor expressed in human HEK293T cells co-expressing beta-arrestin2 assessed as inhibition of carbachol-induced beta-arrestin recruitment preincubated for 30 mins followed by carbachol stimulation and measured after 90 mins by PathHunter assay; type: cell-based
Target sequence in this assay (P20309 whole entry): as the sequence (P20309 whole entry) above

[10] = biological target: T3, Muscarinic acetylcholine receptor M3; test: Binding affinity to saturated human muscarinic M3 expressed in CHO cells assessed as dissociation constant incubated for 2 hrs by flow cytometry; type: cell-based
Target sequence in this assay (P20309 whole entry): as the sequence (P20309 whole entry) above

[11] = biological target: T3, Muscarinic acetylcholine receptor M3; test: Binding affinity to saturated human muscarinic M3 expressed in CHO cells assessed as dissociation constant incubated for 2 hrs in presence of atropine by flow cytometry; type: cell-based
Target sequence in this assay (P20309 whole entry): as the sequence (P20309 whole entry) above

[12] = biological target: T1, Muscarinic acetylcholine receptor M1; test: Binding affinity to saturated human muscarinic M1 expressed in CHO cells assessed as dissociation constant incubated for 2 hrs in presence of atropine by flow cytometry; type: cell-based
[13] = biological target: T1, Muscarinic acetylcholine receptor M1; test: Binding affinity to saturated human muscarinic M1 expressed in CHO cells assessed as dissociation constant incubated for 2 hrs by flow cytometry; type: cell-based
[14] = biological target: T3, Muscarinic acetylcholine receptor M3; test: Binding affinity to human muscarinic M3 expressed in CHO cells assessed as association rate constant incubated for 0.5 to 36 mins in presence of atropine by flow cytometry; type: cell-based; conditions: time lower 0.5 min, time upper […]
Target sequence in this assay (P20309 whole entry, looked up): as the sequence (P20309 whole entry) above

[15] = biological target: T3, Muscarinic acetylcholine receptor M3; test: Binding affinity to human muscarinic M3 expressed in CHO cells assessed as dissociation rate constant preincubated for 20 mins in dark followed by atropine addition and measured after 1 to 130 mins by flow cytometry; type: cell-based; conditions: time lower […], time upper 150.0 min
Target sequence in this assay (P20309 whole entry, looked up): as the sequence (P20309 whole entry) above

CHO-K1 = test: Cytotoxicity against Chinese hamster CHO-K1 cells assessed as reduction in cell viability upto 1 uM by crystal violet staining based multiplate reader analysis; type: toxicity, Cricetulus griseus; conditions: cho-k1, 1 µM
[16] = biological target: T3, Muscarinic acetylcholine receptor M3; test: Displacement of atropine from human muscarinic M3 receptor expressed in CHO cells incubated for 2 hrs by flow cytometric competition binding assay; type: cell-based
Target sequence in this assay (P20309 whole entry): as the sequence (P20309 whole entry) above

[17] = biological target: T3, Muscarinic acetylcholine receptor M3; test: Displacement of tiotropium bromide from human muscarinic M3 receptor expressed in CHO cells incubated for 4 hrs by flow cytometric competition binding assay; type: cell-based
[18] = biological target: T3, Muscarinic acetylcholine receptor M3; test: Binding affinity to human muscarinic M3 receptor expressed in CHO cells assessed as binding to cell membrane at 100 nM measured for 60 mins by Hoechst H33342 staining based confocal microscopy; type: cell membranes
Target sequence in this assay (P20309 whole entry, looked up): as the sequence (P20309 whole entry) above

[19] = biological target: T3, Muscarinic acetylcholine receptor M3; test: Binding affinity to human muscarinic M3 receptor expressed in CHO cells assessed as binding to cell membrane at 60 nM measured for 60 mins by Hoechst H33342 staining based confocal microscopy; type: cell membranes
Target sequence in this assay (P20309 whole entry, looked up): as the sequence (P20309 whole entry) above

[20] = biological target: T3, Muscarinic acetylcholine receptor M3; test: Binding affinity to human muscarinic M3 receptor expressed in CHO cells assessed as binding to cell membrane at 100 nM measured for 60 mins in presence of atropine by Hoechst H33342 staining based confocal microscopy; type: cell membranes
Target sequence in this assay (P20309 whole entry, looked up): as the sequence (P20309 whole entry) above

[21] = biological target: T3, Muscarinic acetylcholine receptor M3; test: Binding affinity to human muscarinic M3 receptor expressed in CHO cells assessed as binding to cell membrane at 60 nM measured for 60 mins in presence of atropine by Hoechst H33342 staining based confocal microscopy; type: cell membranes
Target sequence in this assay (P20309 whole entry, looked up): as the sequence (P20309 whole entry) above

[22] = biological target: T3, Muscarinic acetylcholine receptor M3; test: Binding affinity to human muscarinic M3 expressed in CHO cells assessed as association rate constant incubated for 1 to 75 mins in presence of atropine by flow cytometry; type: cell-based; conditions: time 1-75 min
[23] = biological target: T3, Muscarinic acetylcholine receptor M3; test: Binding affinity to human muscarinic M3 expressed in CHO cells assessed as dissociation rate constant preincubated for 55 mins in dark followed by atropine addition and measured after 1 to 152 mins by flow cytometry; type: cell-based; conditions: time 56-207 min

Structure (SMILES) | Ki [1] [nM] | Ki [2] [nM] | Ki [3] [nM] | Ki [4] [nM] | Ki [5] [nM] | Selectivity ratio (Homo sapiens [6]) | Selectivity ratio (Homo sapiens [7]) | IC50 [8] [nM] | IC50 [9] [nM] | Kd [10] [nM] | Kd [11] [nM] | Kd [12] [nM] | Kd [13] [nM] | Activity (CHO-K1) | Ki ([16]; read-out: Ki) [nM] | Ki ([16]; read-out: pKi (converted)) [nM] | Ki ([17]; read-out: Ki) [nM] | Activity [18] | Activity [19] | Activity [20] | further results
CN(C)c1ccc2c(-c3ccc(-c4cn(CCCCCn5cc(CCCCCCN6CCC(COC(=O)Nc7ccc(F)cc7-c7ccc(F)c(Cl)c7)CC6)nn5)nn4)cc3C(=O)[O-])c3ccc(=[N+](C)C)cc-3oc2c1 | 1.5 | 11 | 1.2 | 1.4 | 7.4 | 1.2 | 6.2 | 130 | 430 | 23 | 24 | 8.3 | 7.3 | Non-Toxic | 2.3 | 2.19 | 0.15 | Active | Active | inactive | ka [14]: 0.37 min⁻¹; Kdiss [15]: 0.0004 s⁻¹; Ki ([17]; read-out: pKi (converted)): 0.132 nM; Activity [21]: inactive
CC1(C)C(/C=C/C=C/C=C2/N(CCCCS(=O)(=O)O)c3ccccc3C2(C)C)=[N+](CCCCCC(=O)NCCCCCCCCN2CCC(OC(=O)Nc3ccc(F)cc3-c3ccc(F)c(Cl)c3)CC2)c2ccc(S(=O)(=O)[O-])cc21 | 0.73 | 9.6 | 14 | 0.87 | 5.5 | 0.06 | 0.39 | 300 | 450 | 54 | 49.7 | 6.5 | 6 | Non-Toxic | 2.4 | 2.14 | 0.14 | Active | Active | inactive | ka [22]: 0.09 min⁻¹; Kdiss [23]: 0.000433 s⁻¹; Activity [21]: inactive
